Bridge positions count the residues as written; N and C are the ends. Square brackets hold non-standard residues; d marks the D form. Peptide text beside a SMILES is read from it.
Columns and labels:
ANP receptor = molecular target: T1, ANP receptor (Sus scrofa, UniProt F1SFW3); assay: cGMP production in ANP receptor-expressing LLC-PK1 cells; type: cell-based; conditions: 30 min stimulation, 10^-6M through 10^-12M, NR = No response detected
T1 construct: ANP receptor-expressing LLC-PK1 cells; endogenous in cells; host or cells: LLC-PK1 cells
T1 sequence (F1SFW3 29-1057): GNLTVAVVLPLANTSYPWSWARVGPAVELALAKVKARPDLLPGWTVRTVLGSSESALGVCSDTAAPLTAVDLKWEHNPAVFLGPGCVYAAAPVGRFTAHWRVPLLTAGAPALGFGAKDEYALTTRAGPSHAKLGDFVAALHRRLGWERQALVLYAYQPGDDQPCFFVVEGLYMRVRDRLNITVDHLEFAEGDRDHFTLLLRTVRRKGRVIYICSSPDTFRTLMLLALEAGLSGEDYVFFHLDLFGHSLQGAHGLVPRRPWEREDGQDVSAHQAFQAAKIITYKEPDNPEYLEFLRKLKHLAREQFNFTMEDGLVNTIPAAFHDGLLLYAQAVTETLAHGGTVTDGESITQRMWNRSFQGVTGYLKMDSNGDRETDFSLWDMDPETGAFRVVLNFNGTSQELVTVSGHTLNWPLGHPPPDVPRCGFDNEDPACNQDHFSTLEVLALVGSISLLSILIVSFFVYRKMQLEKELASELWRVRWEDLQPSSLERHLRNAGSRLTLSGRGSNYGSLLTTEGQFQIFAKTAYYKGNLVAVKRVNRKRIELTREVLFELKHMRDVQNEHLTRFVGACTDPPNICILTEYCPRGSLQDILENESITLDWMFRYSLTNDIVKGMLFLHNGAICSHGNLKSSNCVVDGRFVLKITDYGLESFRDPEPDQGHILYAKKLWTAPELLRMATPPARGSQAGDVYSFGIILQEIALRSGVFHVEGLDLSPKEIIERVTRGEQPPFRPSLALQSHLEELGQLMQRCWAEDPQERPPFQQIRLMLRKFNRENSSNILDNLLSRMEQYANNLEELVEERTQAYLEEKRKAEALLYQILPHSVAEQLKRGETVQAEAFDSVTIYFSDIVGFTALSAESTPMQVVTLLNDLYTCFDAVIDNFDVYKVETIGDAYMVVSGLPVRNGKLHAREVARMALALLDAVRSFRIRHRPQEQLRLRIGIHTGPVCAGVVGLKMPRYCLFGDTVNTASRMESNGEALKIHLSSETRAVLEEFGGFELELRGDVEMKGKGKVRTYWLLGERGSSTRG
Experimental: The bifunctional hormone was tested on ANP receptor-expressing LLC-PK1 cells and on MCR1 receptor-expressing B16-F1 cells. Both cell types were cultured 24 hours before the stimulation, in 96-well plates, at a concentration of 1.0×10^5 cells/ml. Before stimulation, cells were starved 2 hours in DPBS only and incubated 10 min in assay buffer (DPBS containing 20 mM HEPES, 0.1% BSA and 500 μM IBMX). The dose response curve of the bifunctional hormone was done for 30 minutes with concentrations of 10^−6M through 10^−12M. Supernatant was collected and cAMP (B16-F1) or cGMP (LLC-PK1) was measured with a radiolabeled kit from GE Healthcare Company.

Sprague-Dawley (SD) rats [1] = assay: Prophylactic treatment, acute kidney dysfunction following renal ischemia (renal artery clamping); type: in vivo, rat
Experimental: Plasma creatinine and urea were determined at different times. Data were analyzed by two way ANOVA using Bonferroni test for significance against the saline-treated group (n=3 per group; sal n=6).
Animals. Sprague-Dawley (SD) rats (male, weighing from 300 to 330 g) were obtained from Charles River Inc. Animals were maintained on standard laboratory chow under a 12:12 light:dark cycle.
Surgical preparation. The rats were anesthetized with Isoflurane 2.5% for the duration of the experiment. Animals were placed under radiant warmer to keep the temperature at 37.5° C. A blood sample (0.5 ml) was collected via tail vein artery before the renal artery clamping. Once the animal was anesthetized, placed in a supine position, a 1.5 cm flank incision was made on the right side of the abdominal wall. The right kidney was then exposed and the ureter, renal artery and renal vein were carefully dissected and ligated. The kidney was removed after cutting renal pedicle. A same incision was made on the left side of the abdominal wall. The left kidney is exposed and the renal vascular pedicle is carefully dissected. The renal vascular pedicle was then occluded by placing a vascular clip (Micro Serrefine™, Fine Science Tools) for a period of 30 or 45 minutes. This renal vascular pedicle clamping produced an acute renal artery occlusion (RAO). The kidney was inspected for ischemia as well as for good reperfusion after removing vascular clip for 2 minutes. The wound of abdominal wall was closed in two layers. The muscular layer was closed with a running 3-0 silk suture and the skin was closed with suture clips (Fine Science Tools). 21 hours after right nephrectomy and left renal artery clipping procedure, the rats were put in the metabolic cages for urine collection (in pre-weighed Tube 50 ml) for 3 hours. Urine volume was measured by weighing the tube containing urine. Then, the animals were anesthetized with Isoflurane 2.5%. Left kidney was removed and kept in formalin for future histology. […]

Sprague-Dawley (SD) rats [2] = assay: Post-injury (therapeutic) treatment, acute kidney dysfunction following renal ischemia; type: in vivo, rat; conditions: 15 μg/kg/h for 2 h after clamp removal, FIG. 4
Experimental: Peptides #2 and #33 were infused for 2 h after the removal of the renal clamps in the rat model of renal ischemia. Blood samples were collected at the indicated times and plasma creatinine and urea were determined. Data were analyzed by two way ANOVA using Bonferroni test for significance against the saline-treated group (n=3 per group; sal n=6);
Surgical preparation. The rats were anesthetized with Isoflurane 2.5% for the duration of the experiment. Animals were placed under radiant warmer to keep the temperature at 37.5° C. A blood sample (0.5 ml) was collected via tail vein artery before the renal artery clamping. Once the animal was anesthetized, placed in a supine position, a 1.5 cm flank incision was made on the right side of the abdominal wall. The right kidney was then exposed and the ureter, renal artery and renal vein were carefully dissected and ligated. The kidney was removed after cutting renal pedicle. A same incision was made on the left side of the abdominal wall. The left kidney is exposed and the renal vascular pedicle is carefully dissected. The renal vascular pedicle was then occluded by placing a vascular clip (Micro Serrefine™, Fine Science Tools) for a period of 30 or 45 minutes. This renal vascular pedicle clamping produced an acute renal artery occlusion (RAO). The kidney was inspected for ischemia as well as for good reperfusion after removing vascular clip for 2 minutes. The wound of abdominal wall was closed in two layers. The muscular layer was closed with a running 3-0 silk suture and the skin was closed with suture clips (Fine Science Tools). 21 hours after right nephrectomy and left renal artery clipping procedure, the rats were put in the metabolic cages for urine collection (in pre-weighed Tube 50 ml) for 3 hours. Urine volume was measured by weighing the tube containing urine. Then, the animals were anesthetized with Isoflurane 2.5%. Left kidney was removed and kept in formalin for future histology. Blood was collected by cardiac puncture into a heparinized syringe (3 ml) and immediately transferred into appropriately labeled tubes that contain heparin as the anticoagulant. Following collection, all blood samples were kept on ice and centrifuged for 2 min at 13000 rpm. Plasma and urine aliquots (400 μl) were removed and stored at −80° C.
Preparation of dosing solutions. Peptides (#2 and #33) were also made up fresh daily in a 0.1% HSA saline solution (33 μl of 30% HSA in […] saline) at concentration of 100 μg/100 μl. […]
In order to verify if short infusions of the peptides post-injury (therapeutic treatment) would be beneficial to reduce kidney injury, peptides #2 or #33 were infused at 15 μg/kg/h for 2 h after renal artery clamp removal. Plasma creatinine and urea were determined at different times. […]

[3] = 15 μg/kg/h infused 1 h before and 1 h after renal artery clamping, vs saline group, each time point, FIG. 3
[4] = later time points 21 h and 27 h

CC[C@H](C)[C@@H]1NC(=O)[C@H](CCCNC(=N)N)NC(=O)[C@H](CC(=O)O)NC(=O)[C@H](CCSC)NC(=O)[C@H](CCCNC(=N)N)NC(=O)CNC(=O)CNC(=O)[C@H](Cc2ccccc2)NC(=O)[C@@H](NC(=O)[C@H](CCSC)NC(=O)[C@@H]2CCCN2C(=O)[C@H](CCCCN)NC(=O)CNC(=O)[C@H](Cc2c[nH]c3ccccc23)NC(=O)[C@H](CCCNC(=N)N)NC(=O)[C@@H](Cc2ccccc2)NC(=O)[C@H](Cc2c[nH]cn2)NC(C)=O)CSSC[C@@H](C(=O)N[C@@H](CC(N)=O)C(=O)N[C@@H](CO)C(=O)N[C@@H](Cc2ccccc2)C(=O)N[C@@H](CCCNC(=N)N)C(=O)N[C@@H](Cc2ccc(O)cc2)C(N)=O)NC(=O)CNC(=O)[C@H](CC(C)C)NC(=O)CNC(=O)[C@H](CO)NC(=O)[C@H](CCC(N)=O)NC(=O)[C@H](C)NC(=O)CNC1=O [SEQ ID NO: 33, Ac-H-f-R-W-G-K-P-M-[C-F-G-G-R-M-D-R-I-G-A-Q-S-G-L-G-C]-N-S-F-R-Y-NH2] (Ac-H[dF]RWGKPMCFGGRMDRIGAQSGLGCNSFRY-NH2; disulfide 9-25)
EC50 (ANP receptor): 69 nM | blood urea nitrogen (BUN) (Sprague-Dawley (SD) rats [1]; [3]): significantly reduced the elevation | plasma creatinine (Sprague-Dawley (SD) rats [1]; [3]): significantly reduced the elevation | diminishing kidney injury, compared with native ANP (Sprague-Dawley (SD) rats [1]; prophylactic use, 15 μg/kg/h): as effective as native ANP | BUN (Sprague-Dawley (SD) rats [2]; at 4 h): prevented the rise | plasma creatinine (Sprague-Dawley (SD) rats [2]; at 4 h): prevented the rise | reducing BUN levels, compared with native ANP (Sprague-Dawley (SD) rats [2]; [4]): more effective than native ANP | reducing creatinine levels, compared with native ANP (Sprague-Dawley (SD) rats [2]; [4]): more effective than native ANP

From patent US8822413B2, “Bifunctional hormone having alpha-MSH activity and natriuretic peptide activity and uses thereof” (Theratechnologies Inc., priority 2007, dated 2014)
